{"source": "patent US10668048B2", "about": "“Compounds for inhibiting bacterial growth via phosphatidylglycerol binding” (Wichita State University, priority 2016, dated 2020)", "key": {"MRSA [1]": {"system": "MRSA", "test": "MIC in cation-adjusted Muller Hinton culture", "assay_type": "cell-based, Methicillin-resistant S. aureus", "conditions": "no growth after 24 hours", "procedure": "(§1) MICs were determined in cation-adjusted Muller Hinton culture. Standard CLSI protocol for serial dilutions of liptin concentrations were used to determine the MIC, starting at 0.01 OD. Two different experimental cultures were used and each data point measured in triplicate."}, "[2]": {"system": "Gram-negative and Gram-positive bacteria", "test": "MIC/MBC in Muller Hinton culture, summary over the bacteria tested", "assay_type": "cell-based", "procedure": "as §1\nas §1, with “Minimum bactericidal concentration (MBC)” for “MICs”, “MBC,” for “MIC,”"}, "Staphylococcus aureus [3]": {"system": "Staphylococcus aureus", "test": "MBC in cation-adjusted Muller Hinton culture", "assay_type": "cell-based", "procedure": "as §1, with “Minimum bactericidal concentration (MBC)” for “MICs”, “MBC,” for “MIC,”"}, "Mycobacterium smegmatis [4]": {"system": "Mycobacterium smegmatis", "test": "MBC in cation-adjusted Muller Hinton culture", "assay_type": "cell-based", "procedure": "as §1, with “Minimum bactericidal concentration (MBC)” for “MICs”, “MBC,” for “MIC,”"}, "Klebsiella pneumoniae [5]": {"system": "Klebsiella pneumoniae", "test": "MBC in cation-adjusted Muller Hinton culture", "assay_type": "cell-based", "procedure": "as §1, with “Minimum bactericidal concentration (MBC)” for “MICs”, “MBC,” for “MIC,”"}, "Escherichia coli [6]": {"system": "Escherichia coli", "test": "MBC in cation-adjusted Muller Hinton culture", "assay_type": "cell-based", "procedure": "as §1, with “Minimum bactericidal concentration (MBC)” for “MICs”, “MBC,” for “MIC,”"}, "Acinetobacter baumannii [7]": {"system": "Acinetobacter baumannii", "test": "MBC in cation-adjusted Muller Hinton culture", "assay_type": "cell-based", "procedure": "as §1, with “Minimum bactericidal concentration (MBC)” for “MICs”, “MBC,” for “MIC,”"}, "[8]": {"system": "human HeLa (vaginal carcinoma) cells", "test": "LDH release cytotoxicity assay", "assay_type": "cell-based", "conditions": "up to about 15 μM", "procedure": "(§2) Toxicity Studies of human HeLa (vaginal carcinoma) and A549 (lung carcinoma epithelial) cells with Liptins 1h and 1k.\n(§3) Eukaryote cell toxicity was determined using a Pierce LDH assay kit including the Chemical Compound-Mediated Cytotoxicity assay. This kit measures cell death by measuring the amount of lactate dehydrogenase released from cells. Lactate dehydrogenase (LDH) is a cytosolic enzyme present in many different types of cells. When the plasma membrane is damaged, LDH is released into cell culture media. The released LDH can be quantified by a coupled enzymatic reaction. First, LDH catalyzes the conversion of lactate to pyruvate via reduction of NAD+ to NADH. Second, diaphorase uses NADH to reduce a tetrazolium salt (INT) to a red formazan product. Therefore, the level of formazan formation is directly proportional to the amount of released LDH in the medium."}, "[9]": {"system": "A549 (lung carcinoma epithelial) cells", "test": "LDH release cytotoxicity assay", "assay_type": "cell-based", "conditions": "near 15 μM", "procedure": "as §2, §3"}, "MRSA [10]": {"system": "MRSA", "test": "MBC in cation-adjusted Muller Hinton culture", "assay_type": "cell-based, Methicillin-resistant S. aureus", "procedure": "as §1, with “Minimum bactericidal concentration (MBC)” for “MICs”, “MBC,” for “MIC,”"}, "[11]": {"system": "Gram-positive and Gram-negative bacteria", "test": "Growth curves in BHI culture with liptins 1h-k", "assay_type": "cell-based", "conditions": "one inoculation", "procedure": "Growth curves in BHI culture were generated (not shown) from liquid shake-flask cultures using absorbance measurements at 600 nm at different concentrations of liptins 1h-k. Uninoculated control flasks were used as blanks. Absorbance values of 0.1 OD unit was considered reasonable threshold for positive growth. The use of the nutrient-rich BHI culture allowed us to measure the effects of the small structural differences in liptins 1h-k on bacterial growth rates over long periods of time. […] Liptin exposure appears to stop bacterial growth, as evidenced by long lag phases, which increase with liptin concentration, and growth rates and maximum cell densities are decreased with liptin treatment."}, "Staphylococcus aureus [12]": {"system": "Staphylococcus aureus", "test": "Live-Dead stain (BacLight SYTO 9 / propidium iodide)", "assay_type": "cell-based", "conditions": "5 μM, 90 minutes", "procedure": "(§4) Molecular Probes BacLight© kits containing the SYTO 9 green-fluorescent dye and propidium iodide red-fluorescent dye were used to detect live or dead bacteria after ninety minute exposure of bacteria to liptins 1h or 1k. Bacteria in Muller Hinton culture were grown to an OD=0.3, were inoculated with liptins 1h and 1k and after ninety minutes stained with a mixture of the above dyes and affixed to a slide to be examined under a light microscope (40×) to determine the number of live and dead cells (green colored cells considered alive and red-colored cells considered dead). Data was calculated based upon an average of 5 different plate counts from each slide, and is based on a percent of total bacteria counted (live and dead). Control sample contains no liptin."}, "Mycobacterium smegmatis [13]": {"system": "Mycobacterium smegmatis", "test": "Live-Dead stain (BacLight SYTO 9 / propidium iodide)", "assay_type": "cell-based", "conditions": "5 μM, 90 minutes", "procedure": "as §4"}, "Klebsiella pneumoniae [14]": {"system": "Klebsiella pneumoniae", "test": "Live-Dead stain (BacLight SYTO 9 / propidium iodide)", "assay_type": "cell-based", "conditions": "5 μM, 90 minutes", "procedure": "as §4"}, "Escherichia coli [15]": {"system": "Escherichia coli", "test": "Live-Dead stain (BacLight SYTO 9 / propidium iodide)", "assay_type": "cell-based", "conditions": "10 μM, 90 minutes", "procedure": "as §4"}, "Acinetobacter baumannii [16]": {"system": "Acinetobacter baumannii", "test": "Live-Dead stain (BacLight SYTO 9 / propidium iodide)", "assay_type": "cell-based", "conditions": "5 μM, 90 minutes", "procedure": "as §4"}, "MRSA [17]": {"system": "MRSA", "test": "Live-Dead stain (BacLight SYTO 9 / propidium iodide)", "assay_type": "cell-based, Methicillin-resistant S. aureus", "conditions": "90 minutes", "procedure": "as §4"}, "E. coli": {"system": "E. coli", "test": "BacLight Bacterial Membrane Potential kit, plasma membrane depolarization", "assay_type": "cell-based", "conditions": "one half the liptins' MICs; concentration dependent", "procedure": "(§5) The Molecular Probes BacLight® Bacterial Membrane Potential kit was used to detect changes in the polarization of the bacterial plasma membrane upon inoculation of bacteria with varying concentrations of liptins 1h or 1k. […] CCCP (carbonyl cyanide 3-chlorophenylhydrazone) is a proton ionophore that destroys plasma membrane potential and as such is a positive control. […] With plasma membrane depolarization the bacterial cell loses its ability to synthesize ATP and proteins. Additionally loss of membrane potential stops the ability for cell replication due to an inability for proper placement of divisome proteins in the plasma membrane. […] Thus, it is possible that the liptin's mechanism of action is a result of their deleterious effect on the functioning of electron transport proteins found in the plasma membrane."}, "S. aureus": {"system": "S. aureus", "test": "BacLight Bacterial Membrane Potential kit, plasma membrane depolarization", "assay_type": "cell-based", "conditions": "one half the liptins' MICs; concentration dependent", "procedure": "as §5"}, "Staphylococcus aureus [18]": {"system": "Staphylococcus aureus", "test": "MIC in cation-adjusted Muller Hinton culture", "assay_type": "cell-based", "conditions": "no growth after 24 hours", "procedure": "as §1"}, "Mycobacterium smegmatis [19]": {"system": "Mycobacterium smegmatis", "test": "MIC in cation-adjusted Muller Hinton culture", "assay_type": "cell-based", "conditions": "no growth after 24 hours", "procedure": "as §1"}, "Klebsiella pneumoniae [20]": {"system": "Klebsiella pneumoniae", "test": "MIC in cation-adjusted Muller Hinton culture", "assay_type": "cell-based", "conditions": "no growth after 24 hours", "procedure": "as §1"}, "Pseudomonas aeruginosa": {"system": "Pseudomonas aeruginosa", "test": "MIC in cation-adjusted Muller Hinton culture", "assay_type": "cell-based", "conditions": "no growth after 24 hours", "procedure": "as §1"}, "Escherichia coli [21]": {"system": "Escherichia coli", "test": "MIC in cation-adjusted Muller Hinton culture", "assay_type": "cell-based", "conditions": "no growth after 24 hours", "procedure": "as §1"}, "Acinetobacter baumannii [22]": {"system": "Acinetobacter baumannii", "test": "MIC in cation-adjusted Muller Hinton culture", "assay_type": "cell-based", "conditions": "no growth after 24 hours", "procedure": "as §1"}}}
{"smiles": "CCCCCCNC(=O)Cc1ccc2c(c1)CNCCCCNCc1cc(CC(=O)NCCCCCC)ccc1OCCCCO2", "note": "[Liptin 1k]", "values": [{"measurement": "MIC", "setting": "MRSA [1]", "value": 2.5, "unit": "µM"}, {"measurement": "MICs determined for the 6 bacteria", "setting": "[2]", "value": "1.5 to 2.5", "unit": "µM"}, {"measurement": "MBC", "setting": "Staphylococcus aureus [3]", "value": 9.5, "unit": "µM"}, {"measurement": "MBC", "setting": "Mycobacterium smegmatis [4]", "value": 9.5, "unit": "µM"}, {"measurement": "MBC", "setting": "Klebsiella pneumoniae [5]", "value": 9.5, "unit": "µM"}, {"measurement": "MBC", "setting": "Escherichia coli [6]", "value": 7.5, "unit": "µM"}, {"measurement": "MBC", "setting": "Acinetobacter baumannii [7]", "value": 7.5, "unit": "µM"}, {"measurement": "cell toxicity (LDH release)", "setting": "[8]", "value": "no cell toxicity"}, {"measurement": "cytotoxicity (LDH release)", "setting": "[9]", "value": "around 8%"}, {"measurement": "MBC", "setting": "MRSA [10]", "value": 11.5, "unit": "µM"}, {"measurement": "antibacterial activity from growth curves", "setting": "[11]", "value": "most potent"}, {"measurement": "Dead", "setting": "Staphylococcus aureus [12]", "value": 42, "unit": "%"}, {"measurement": "Live", "setting": "Staphylococcus aureus [12]", "value": 58, "unit": "%"}, {"measurement": "Dead", "setting": "Mycobacterium smegmatis [13]", "value": 100, "unit": "%"}, {"measurement": "Live", "setting": "Mycobacterium smegmatis [13]", "value": 0, "unit": "%"}, {"measurement": "Dead", "setting": "Klebsiella pneumoniae [14]", "value": 100, "unit": "%"}, {"measurement": "Live", "setting": "Klebsiella pneumoniae [14]", "value": 0, "unit": "%"}, {"measurement": "Dead", "setting": "Escherichia coli [15]", "value": 65, "unit": "%"}, {"measurement": "Live", "setting": "Escherichia coli [15]", "value": 35, "unit": "%"}, {"measurement": "Dead", "setting": "Acinetobacter baumannii [16]", "value": 97, "unit": "%"}, {"measurement": "Live", "setting": "Acinetobacter baumannii [16]", "value": 3, "unit": "%"}, {"measurement": "Dead", "setting": "MRSA [17]; 5 μM", "value": 70, "unit": "%"}, {"measurement": "Live", "setting": "MRSA [17]; 5 μM", "value": 30, "unit": "%"}, {"measurement": "Dead", "setting": "MRSA [17]; 10 μM", "value": 100, "unit": "%"}, {"measurement": "Live", "setting": "MRSA [17]; 10 μM", "value": 0, "unit": "%"}, {"measurement": "plasma membrane depolarization (red/green fluorescence ratio)", "setting": "E. coli", "value": "large membrane depolarization"}, {"measurement": "plasma membrane depolarization (red/green fluorescence ratio)", "setting": "S. aureus", "value": "large membrane depolarization"}, {"measurement": "MIC", "setting": "Staphylococcus aureus [18]", "value": 2, "unit": "µM"}, {"measurement": "MIC", "setting": "Mycobacterium smegmatis [19]", "value": 2, "unit": "µM"}, {"measurement": "MIC", "setting": "Klebsiella pneumoniae [20]", "value": 2.5, "unit": "µM"}, {"measurement": "MIC", "setting": "Pseudomonas aeruginosa", "value": 8, "unit": "µM"}, {"measurement": "MIC", "setting": "Escherichia coli [21]", "value": 1.5, "unit": "µM"}, {"measurement": "MIC", "setting": "Acinetobacter baumannii [22]", "value": 2, "unit": "µM"}]}
